Details: in vivo

Structure (SMILES): NC(=O)C1=C(O)C[C@@H]2C[C@@H]3Cc4cccc(O)c4C(=O)C3=C(O)[C@]2(O)C1=O [CMT-3, 6-demethyl-6-deoxy-4-dedimethylaminotetracycline]
- plasma concentrations in humans: about 1.0 μg/ml

Reference: patent US20230113011A1, “METHODS OF TREATING ILLNESSES CAUSED BY CORONAVIRUS, SWINE FLU AND AVIAN FLU” (CMTx Biotech Inc., priority 2020, published 2023)
